According to patent publication US12280038B2, “L-pag derivatives for treatment of sleep disordered breathing (SDB)” (priority 2016, dated 2025):
Like-named read-outs stand apart in the source and are kept apart here.

How the values were obtained:
in vivo = experiment: in vivo
Procedure: Comparisons of L-PAG plasma levels with (a) dose-response parameters for L-PAG pharmacologic activity and (b) the kinetics of reversal of this pharmacologic activity, support the conclusion that a threshold plasma drug level of approximately 12 to 15 μg/ml is necessary to sustain anti-apnea action. This threshold plasma drug level is consistent with both (a) the minimal anti-apnea activity of the 10 mg/kg dose of L-PAG and (b) the kinetics of the reversal of anti-apnea activity with time seen at L-PAG doses of 30 mg/kg or higher.

cystathionine-β-synthase = target: T1, cystathionine-β-synthase (Mus musculus, UniProt Q91WT9); experiment: In vitro assay of H2S production in mouse liver homogenates (CBS); format: biochemical; settings: L-PAG 30 μM
T1 construct: H2S generation by CSE and CBS in mouse liver homogenates; from tissue; host or cells: mouse liver homogenate
T1 sequence (Q91WT9 1-561): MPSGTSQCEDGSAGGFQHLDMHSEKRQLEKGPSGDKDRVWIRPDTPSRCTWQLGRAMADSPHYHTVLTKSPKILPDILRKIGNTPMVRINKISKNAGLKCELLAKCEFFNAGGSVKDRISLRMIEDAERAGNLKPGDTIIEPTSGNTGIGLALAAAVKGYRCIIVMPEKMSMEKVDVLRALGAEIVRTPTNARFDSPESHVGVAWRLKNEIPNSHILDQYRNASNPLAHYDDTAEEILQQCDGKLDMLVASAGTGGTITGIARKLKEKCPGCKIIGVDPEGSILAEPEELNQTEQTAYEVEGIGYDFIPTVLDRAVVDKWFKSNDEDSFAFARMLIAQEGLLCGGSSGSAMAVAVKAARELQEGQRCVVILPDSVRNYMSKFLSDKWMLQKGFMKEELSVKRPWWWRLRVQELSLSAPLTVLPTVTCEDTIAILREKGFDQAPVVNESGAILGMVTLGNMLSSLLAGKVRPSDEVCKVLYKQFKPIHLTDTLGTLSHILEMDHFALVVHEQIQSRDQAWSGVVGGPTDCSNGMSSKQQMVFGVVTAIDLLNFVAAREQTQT
Procedure: (§1) FIGS. 10A-10B Effect of CSE inhibitor on H2S production. FIG. 10A depicts a dose-response of L-propargylglycine (L-PAG) on H2S production in an in vitro assay using mouse liver homogenates. FIG. 10B depicts the effect of L-PAG (30 μM) on H2S generation by CSE and CBS in mouse liver homogenates. Data are presented as mean±SEM from 4 independent experiments. **P<0.01; n.s., not significant.
(§2) The effect of pharmacological CSE blockade on restoration of stable breathing in HO-2 null mice was examined. L-propargylglycine (L-PAG) is an inhibitor of CSE. […] The inhibitory effects of L-PAG were selective to CSE because H2S synthesis by cystathionine-β-synthase was unaffected (FIG. 10 B).

carotid body = experiment: Ex vivo carotid body sensory nerve response to hypoxia; settings: 30 mg/kg, HO-2 null mice
Procedure: Sensory nerve activity was recorded from ex vivo carotid bodies harvested from anesthetized mice. Briefly, the carotid sinus nerve was treated with collagenase, and several nerve bundles were isolated. Action potentials from one of the nerve bundles were recorded using a suction electrode (˜20-μm-diameter tip). […] Action potentials of similar height, duration, and shape (“single” unit) were selected using Spike histogram software (LabChart 7 Pro) for analysis of the sensory nerve activity. To obtain a stable baseline sensory nerve activity, carotid bodies were first superfused for 1 hour with normoxia-equilibrated medium. Subsequently, baseline sensory nerve activity under normoxia was recorded for 5 min. Sensory nerve responses to hypoxia were monitored for 3 min. The PO2 in the medium was determined by a blood gas analyzer (ABL 5). Hypoxic response was measured as the difference between the sensory nerve activity under baseline and during hypoxia (Δimp/s).

HO-2 null mice [1] = settings: any of the doses tested
Procedure: HO-2 null mice were treated with increasing doses of L-PAG via the intraperitoneal route, and breathing was monitored continuously for 6 hours. […] The anti-apneic effects of L-PAG were further analyzed at 30 mg/kg.

HO-2 null mice [2] = experiment: Breathing (apnea, hypoapnea) monitored by whole-body plethysmography in unsedated HO-2 null mice; format: in vivo; settings: for ED50: Mus musculus
Procedure: Experiments were approved by the Institutional Animal Care and Use Committee of the University of Chicago and were performed on age-matched C57/BL6 wild type and HO-2^−/− mice. At the end of the experiment, mice were euthanized by intra-cardiac injection (0.1 mL) of euthanasia solution (Beuthanasia-D Special, Schering-Plough).
Breathing was continuously monitored under room air from 10:00 AM to 4:00 PM by whole-body plethysmography (emka Technologies, Falls Church, VA) while ambient temperatures were maintained at 25±1° C. Breathing signals were collected and stored with a data acquisition system(emka Technologies, Falls Church, VA; or PowerLab 8/35, AD Instruments, Australia), and scored off-line with commercial software (RemLogic™, Natus). Apneas were scored when there was a complete pause of respiration for the duration of 3 or more breaths. Hypopneas were scored when there was a 30% reduction in tidal volume or signal amplitude, often with an abrupt return to hyperventilation breaths at the end of the event.

[3] = target: T2, cystathionine-γ-lyase (CSE) (Mus musculus, UniProt Q8VCN5); experiment: In vitro assay of H2S production in mouse liver homogenates (CSE); format: biochemical
T2 construct: H2S production in an in vitro assay using mouse liver homogenates; from tissue; host or cells: mouse liver homogenate
Procedure: as §1, §2

T2 sequence (Q8VCN5 whole entry): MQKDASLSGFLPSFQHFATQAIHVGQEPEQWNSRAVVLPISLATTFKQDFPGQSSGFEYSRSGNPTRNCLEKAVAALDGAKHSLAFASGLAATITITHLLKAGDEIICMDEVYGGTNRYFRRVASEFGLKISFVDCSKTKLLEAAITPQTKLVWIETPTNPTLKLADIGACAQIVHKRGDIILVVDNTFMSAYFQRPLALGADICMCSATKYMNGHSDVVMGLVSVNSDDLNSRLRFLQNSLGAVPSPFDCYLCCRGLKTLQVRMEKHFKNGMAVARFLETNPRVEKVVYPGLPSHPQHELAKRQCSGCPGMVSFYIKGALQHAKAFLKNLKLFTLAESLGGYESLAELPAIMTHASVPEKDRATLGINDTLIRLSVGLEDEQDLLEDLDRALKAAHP

Question: Which bioavailability (in vivo) does the source give for `C#CC[C@H](N)C(=O)O` [L-PAG, L-propargylglycine] here?
Answer: 100%

Question: What about the “plasma clearance profiles, oral versus i.p.” value (in vivo) of the same compound?
Answer: essentially identical

Question: And the “threshold plasma drug level necessary to sustain anti-apnea action” value (in vivo; mouse)?
Answer: 12 to 15 µg/mL

Question: What about the “H2S synthesis by cystathionine-β-synthase” value (cystathionine-β-synthase) of the same compound?
Answer: unaffected

Question: What about the “carotid body sensitivity to hypoxia” value (carotid body) of the same compound?
Answer: markedly reduced

Question: What about the mortality (HO-2 null mice [1]) of the same compound?
Answer: no mortality

Question: And the “anti-apnea activity at 10 mg/kg dose” value (HO-2 null mice [2]; 10 mg/kg)?
Answer: minimal

Question: What about the hypoapnea index (HO-2 null mice [2]; 30 mg/kg intraperitoneal) of the same compound?
Answer: reduced by L-PAG and this effect persisted even after 24 hours

Question: And the “occurrence of both obstructive and central apnea” value (HO-2 null mice [2]; 30 mg/kg intraperitoneal)?
Answer: markedly reduced

Question: And the “time after administration at which anti-apneic effects were seen” value (HO-2 null mice [2]; 30 mg/kg intraperitoneal)?
Answer: ~2 h

Question: And the “time after which apnea returned to pre-injection values” (HO-2 null mice [2]; 30 mg/kg intraperitoneal)?
Answer: 24 h

Question: And the ED50 (HO-2 null mice [2]; ip, intraperitoneal route, breathing monitored 6 hours, HO-2 null mice, read-out: ED50 for reducing number of apneas and restoring stable breathing)?
Answer: 30 mg/kg

Question: And the ED50 (HO-2 null mice [2]; systemic administration, HO2-KO mice, FIG. 11, read-out: ED50 for inhibiting SDB (comparative dose-response))?
Answer: ~30 mg/kg

Question: What about the “reduction of number of apneas and hypoapnea index after oral administration” value (HO-2 null mice [2]; oral 30 mg/kg, compared with intraperitoneal) of the same compound?
Answer: equally effective

Question: What about the “CSE-derived H2S” value [3] of the same compound?
Answer: inhibited
